Experimental findings from publication PMC6491832, “Methylobacterium extorquens RSH Enzyme Synthesizes (p)ppGpp and pppApp in vitro and in vivo, and Leads to Discovery of pppApp Synthesis in Escherichia coli” (Frontiers in Microbiology, 2019) are described below.

The target of one data set is T1, RelSeq1-385 (Streptococcus dysgalactiae, UniProt Q54089).
T1 construct: gene relA; N-terminal catalytic half, residues 1-385; His8-SUMO tag removed by Ulp1; expressed in E. coli BL21(DE3) Rosetta
The format is biochemical. Conditions: 8 mM ATP, 8 mM GTP, 16 mM MgCl2, 50 mM Tris-HCl pH 8.9, 37 °C, control reaction.

Substrate in data set [1]: Nc1nc2c(ncn2[C@@H]2O[C@H](COP(=O)(O)OP(=O)(O)OP(=O)(O)O)[C@@H](O)[C@H]2O)c(=O)[nH]1
The experiment in a line: purified protein. In kind it is biochemical, Methylorubrum extorquens. Conditions: 8 mM ATP, GTP 1-8 mM, 8 mM CoCl2, 50 mM Tris-HCl pH 8.9, 37 °C, 2 h, 80 nM enzyme, pyrophosphate acceptor.

Substrate in data set [2]: Nc1ncnc2c1ncn2[C@@H]1O[C@H](COP(=O)(O)OP(=O)(O)OP(=O)(O)O)[C@@H](O)[C@H]1O
The experiment in a line: purified protein. In kind it is biochemical, Methylorubrum extorquens. To be noted: 8 mM GTP, ATP 0.25-2 mM, 8 mM CoCl2, 50 mM Tris-HCl pH 8.9, 37 °C, 2 h, 80 nM enzyme, pyrophosphate donor.

Where two headings read alike, the source gives them in different places.

T1 sequence (Q54089 1-385): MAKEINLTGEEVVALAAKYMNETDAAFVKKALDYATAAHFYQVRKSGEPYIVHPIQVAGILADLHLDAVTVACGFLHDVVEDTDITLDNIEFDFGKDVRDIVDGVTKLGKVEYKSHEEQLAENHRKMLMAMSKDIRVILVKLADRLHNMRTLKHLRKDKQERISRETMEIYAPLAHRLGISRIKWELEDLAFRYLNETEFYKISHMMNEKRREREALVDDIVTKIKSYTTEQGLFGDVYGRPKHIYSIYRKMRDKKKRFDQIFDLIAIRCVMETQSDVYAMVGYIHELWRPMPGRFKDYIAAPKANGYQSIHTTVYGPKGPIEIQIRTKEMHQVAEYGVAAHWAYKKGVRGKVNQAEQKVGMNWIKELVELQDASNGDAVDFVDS

With `Nc1nc2c(ncn2[C@@H]2O[C@H](COP(=O)(O)OP(=O)(O)OP(=O)(O)O)[C@@H](O)[C@H]2O)c(=O)[nH]1` [GTP], the “pppGpp synthesis from [33P]gamma-ATP, two-dimensional TLC” value on RelSeq1-385 (pyrophosphate acceptor) was “ATP + GTP with RelSeq1-385 (to visualize pppGpp)”.

`Nc1ncnc2c1ncn2[C@@H]1O[C@H](COP(=O)(O)OP(=O)(O)OP(=O)(O)O)[C@@H](O)[C@H]1O` [ATP]: the “pppGpp synthesis from [33P]gamma-ATP, two-dimensional TLC” value on RelSeq1-385 (pyrophosphate donor) is given as “ATP + GTP with RelSeq1-385 (to visualize pppGpp)”.

B1: RSHMex1-352 (Methylorubrum extorquens AM1) (protein)
chain: MMRQYELVERVKRYNPAANEALLNRAYVYAMRAHGTQKRASGDPFFAHPLEVAAILTDLRLDDATIVAAVLHDTVEDTAATLDEIREIFGPEIGALVDGLTKLKRLDLVSKRAVQGENFRKLLLAVAEDVRVLLVKLADRLHNMRTLHFMRDDKRARIAEETLDIYAPLAGRMGMQELRDELEDLSFRTLKPEVYATITKRLEDLSAKSGSVIESIEHDLTARLAARGIAAHVKGRLKKPFSIWSKMERKSVAFEQLSDIVGFRVIVGTLAECYAALGVVHTSWPMVPGRYKDYVSTPKQNDYRSIHTTVIGPKRQRVELQIRTAEMDEIAEYGIAAHAHYKEAGKEGVEGE
notes: N-terminal catalytic half (hydrolase + synthetase domains, residues 1-352), CTD regulatory domain omitted; His8-SUMO tag removed by Ulp1; expressed in E. coli BL21(DE3) Rosetta
Regarding B1, the Km – broadly, the concentration of substrate that gives half-maximal velocity – was determined as 3000 ± 290 µM in the data set “purified protein [1]” and 390 ± 10 µM in “purified protein [2]”.
